Laboratory results as given in US20220125051A1, “PRE-HARVEST DESICCATION METHOD” (SYNGENTA CROP PROTECTION AG, priority 2019, published 2022).
Structures can show the parent of a compound that is named as a salt.

Legend:
Assay in all cases: Post-emergence efficacy, Method A
Assay type in all cases: in vivo
[1] = system: Amaranthus palmeri (AMAPA); conditions: Amaranthus palmeri, post-emergence, 312 h; Application Rate 500 g/Ha; evaluated after 13 days; Method A; read-out: Control of weed species after post-emergence application, AMAPA (100=total damage to plant; 0=no damage to plant)
Outline: (§1)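 Visual damage score, 0 (no damage) to 100 (total), taken 13 d after spraying. Pot-grown plants at 14 d post-sowing received an aqueous spray from a 50 g/l acetone/IF50 solution diluted in 0.25% or 1% Empicol ESC70 + 1% ammonium sulphate; glasshouse 24/16 °C, 14 h light, 65% RH, watered twice daily.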

[2] = system: Euphorbia heterophylla (EPHHL); conditions: Euphorbia heterophylla, post-emergence, 312 h; Application Rate 500 g/Ha; evaluated after 13 days; Method A; read-out: Control of weed species after post-emergence application, EPHHL (100=total damage to plant; 0=no damage to plant)
Outline: as §1

[3] = system: Chenopodium album (CHEAL); conditions: Chenopodium album, post-emergence, 312 h; Application Rate 500 g/Ha; evaluated after 13 days; Method A; read-out: Control of weed species after post-emergence application, CHEAL (100=total damage to plant; 0=no damage to plant)
Outline: as §1

Eleusine indica (ELEIN) = conditions: Eleusine indica, post-emergence, 312 h; Application Rate 500 g/Ha; evaluated after 13 days; Method A; read-out: Control of weed species after post-emergence application, ELEIN (100=total damage to plant; 0=no damage to plant)
Outline: as §1

Setaria faberi (SETFA) = conditions: Setaria faberi, post-emergence, 312 h; Application Rate 500 g/Ha; evaluated after 13 days; Method A; read-out: Control of weed species after post-emergence application, SETFA (100=total damage to plant; 0=no damage to plant)
Outline: as §1

[4] = system: Digitaria sanguinalis (DIGSA); conditions: Digitaria sanguinalis, post-emergence, 312 h; Application Rate 500 g/Ha; evaluated after 13 days; Method A; read-out: Control of weed species after post-emergence application, DIGSA (100=total damage to plant; 0=no damage to plant)
Outline: as §1

[5] = system: Ipomoea hederacea (IPOHE); conditions: Ipomoea hederacea, post-emergence, 312 h, Application Rate 500 g/Ha; evaluated after 13 days; Method A; read-out: Control of weed species after post-emergence application, IPOHE (100=total damage to plant; 0=no damage to plant)
Outline: as §1

Lolium perenne (LOLPE) = conditions: Lolium perenne, post-emergence, 312 h, Application Rate 500 g/Ha; evaluated after 13 days; Method A; read-out: Control of weed species after post-emergence application, LOLPE (100=total damage to plant; 0=no damage to plant)
Outline: as §1

[6] = system: Echinochloa crus-galli (ECHCG); conditions: Echinochloa crus-galli, post-emergence, 312 h; Application Rate 500 g/Ha; evaluated after 13 days; Method A; read-out: Control of weed species after post-emergence application, ECHCG (100=total damage to plant; 0=no damage to plant)
Outline: as §1

Row | SMILES | pest or weed control at 500 g/ha [1] | pest or weed control at 500 g/ha [2] | pest or weed control at 500 g/ha [3] | pest or weed control at 500 g/ha (Eleusine indica (ELEIN)) | pest or weed control at 500 g/ha (Setaria faberi (SETFA)) | pest or weed control at 500 g/ha [4] | pest or weed control at 500 g/ha [5] | pest or weed control at 500 g/ha (Lolium perenne (LOLPE)) | pest or weed control at 500 g/ha [6]
1 | N#Cc1cnc(-c2cc[n+](CCS(=O)(=O)[O-])nc2)cn1 [Compound A191] | 100% | 30% | 30% | 30% | 20% | 20% | 30% | 30% | 10%
2 | COC(=O)C(C)[n+]1ccc(-c2ncccn2)cn1 (stereo not drawn) [Compound A192] | 90% | 40% | 60% | 30% | 20% | 30% | 30% | 10% | 30%
3 | CC(C(=O)OC(C)(C)C)[n+]1ccc(-c2ncccn2)cn1 (stereo not drawn) [Compound A193] | 70% | 60% | 60% | 30% | 10% | 30% | 30% | 10% | 10%
4 | O=S(=O)([O-])OCC[n+]1ccc(-c2ncccn2)cn1 [Compound A194, 2-(4-pyrimidin-2-ylpyridazin-1-ium-1-yl)ethyl sulfate] | 100% | 70% | 70% | 90% | 50% | 50% | 60% | 50% | 70%
5 | Cc1cc(F)cnc1-c1cc[n+](CCCS(=O)(=O)[O-])nc1 [Compound A196] | 30% | 30% | 40% | 10% | 0% | 0% | 20% | 0% | 0%
6 | O=C(O)CC[n+]1ccc(-c2ncc(C(F)(F)F)cc2Cl)cn1 [Compound A197] | 100% | 10% | 10% | 10% | 0% | 20% | 10% | 0% | 0%
7 | O=P(O)(O)CC[n+]1ccc(-c2ncccn2)cn1 [Compound A198] | 100% | 100% | 100% | 80% | 90% | 80% | 50% | 50% | 80%
8 | O=C(O)CC[n+]1ccc(-c2ccc(C(F)(F)F)cn2)cn1 [Compound A200] | 100% | 70% | 70% | 30% | 50% | 40% | 10% | 40% | 40%
9 | N[C@@H](CC[n+]1ccc(-c2ncccn2)cn1)C(=O)O [Compound A201, [(1S)-1-carboxy-3-(4-pyrimidin-2-ylpyridazin-1-ium-1-yl)propyl]ammonium 2,2,2-trifluoroacetate] | 100% | 90% | 100% | 100% | 80% | 80% | 40% | 30% | 70%
10 | NC(=O)c1cnc(-c2cc[n+](CCC(=O)O)nc2)cn1 [Compound A202, 3-[4-(5-carbamoylpyrazin-2-yl)pyridazin-1-ium-1-yl]propanoic acid 2,2,2-trifluoroacetate] | 100% | 100% | 90% | 20% | 70% | 60% | 60% | 70% | 80%
11 | COC(=O)CC[n+]1ccc(-c2ccncc2)cn1 [Compound A203] | 100% | 50% | 90% | 60% | 60% | 70% | 20% | 0% | 50%
12 | CCOP(=O)(CCC[n+]1ccc(-c2ncccn2)cn1)OCC [Compound A204] | 10% | 0% | 20% | 0% | 0% | 0% | 0% | 0% | 0%
13 | OCCC[n+]1ccc(-c2ncccn2)cn1 [Compound A206] | 60% | 60% | 90% | 10% | 10% | 20% | 20% | 0% | 20%
14 | N[C@@H](C[n+]1ccc(-c2ncccn2)cn1)C(=O)O [Compound A208, [(1S)-1-carboxy-2-(4-pyrimidin-2-ylpyridazin-1-ium-1-yl)ethyl]ammonium 2,2,2-trifluoroacetate] | 100% | 50% | 80% | 60% | 60% | 40% | 20% | 10% | 30%
